Key:
human orexin-1 receptor = human orexin-1 receptor (Homo sapiens (Human), UniProt O43613); assay: In vitro assay: intracellular calcium measurements (FLIPR), antagonistic activity; assay type: cell-based; details: CHO cells expressing human orexin-1 receptor, orexin-A agonist, geometric mean, read-out: IC50 Ox1
Outline: (§1)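 hOX1R/hOX2R CHO cells, fluo-4 AM + 5 mM probenecid, 50 min 37 °C then 30 min RT. Cpd 120 min, then orexin-A 3 nM final; FLIPR peak height vs vehicle. IC50, geometric mean of repeats.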

human orexin-2 receptor = human orexin-2 receptor (Homo sapiens (Human), UniProt O43614); assay: as above; assay type: cell-based; details: CHO cells expressing human orexin-2 receptor, orexin-A agonist, geometric mean, read-out: IC50 Ox2
Sequence of human orexin-2 receptor (O43614 whole entry): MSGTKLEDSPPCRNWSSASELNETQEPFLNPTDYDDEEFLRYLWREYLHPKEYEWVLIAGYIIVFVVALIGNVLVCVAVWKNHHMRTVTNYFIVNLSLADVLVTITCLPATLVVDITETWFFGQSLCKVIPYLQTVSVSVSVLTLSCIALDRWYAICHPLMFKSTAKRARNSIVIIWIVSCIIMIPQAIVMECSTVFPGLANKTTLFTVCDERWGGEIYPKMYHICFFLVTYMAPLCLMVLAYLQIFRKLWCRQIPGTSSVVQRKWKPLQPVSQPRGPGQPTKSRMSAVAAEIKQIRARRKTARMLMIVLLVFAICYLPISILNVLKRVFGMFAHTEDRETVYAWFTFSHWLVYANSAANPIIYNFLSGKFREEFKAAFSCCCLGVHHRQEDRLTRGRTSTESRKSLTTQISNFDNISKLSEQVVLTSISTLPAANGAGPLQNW
Outline: as §1

Sequence of human orexin-1 receptor (O43613 whole entry): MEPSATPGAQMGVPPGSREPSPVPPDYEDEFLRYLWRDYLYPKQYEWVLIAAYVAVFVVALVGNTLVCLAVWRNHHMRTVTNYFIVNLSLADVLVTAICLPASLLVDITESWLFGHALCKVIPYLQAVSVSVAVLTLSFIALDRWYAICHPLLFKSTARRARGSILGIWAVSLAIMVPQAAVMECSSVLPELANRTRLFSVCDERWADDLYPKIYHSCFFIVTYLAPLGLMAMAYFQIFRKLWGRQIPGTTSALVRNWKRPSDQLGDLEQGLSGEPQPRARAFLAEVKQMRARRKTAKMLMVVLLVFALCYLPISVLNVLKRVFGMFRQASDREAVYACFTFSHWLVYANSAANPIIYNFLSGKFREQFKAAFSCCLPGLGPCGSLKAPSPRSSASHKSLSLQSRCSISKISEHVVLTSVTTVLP

Row | IC50 (human orexin-1 receptor) | IC50 (human orexin-2 receptor) | Compound
1 | 576 nM | 9 nM | COc1ccc2nc([C@@H]3C[C@@H](OC)CN3C(=O)c3cc(C)c(C)cc3-n3nccn3)[nH]c2c1 [Ex. 3.22]
2 | 33 nM | 22 nM | Cc1cc(C)c2nc(C3CCCN3C(=O)c3nc(C)sc3-c3ccccc3)[nH]c2c1 (stereo not shown) [Ex. 1.127]
3 | 367 nM | 538 nM | Cc1ccc(-c2ccc(C(F)(F)F)cc2)c(C(=O)N2CCC[C@@]2(C)c2nc3cc(C(F)(F)F)c(Cl)cc3[nH]2)c1 [Ex. 5.157]
4 | 21 nM | 4 nM | C=C1C[C@@H](c2nc3ccc(Cl)c(C)c3[nH]2)N(C(=O)c2nc(C)sc2-c2ccc(F)cc2)C1 [Ex. 6.118]
5 | 1530 nM | 29 nM | C=C1C[C@@H](c2nc3cc(OC)ccc3[nH]2)N(C(=O)c2cc(F)ccc2-n2nccn2)C1 [Ex. 6.18]
6 | 1930 nM | 21 nM | COc1ccc2nc([C@@H]3C[C@@H](OC)CN3C(=O)c3cc(Cl)ccc3-n3nccn3)[nH]c2c1 [Ex. 3.19]
7 | 94 nM | 44 nM | CO[C@H]1CN(C(=O)c2cc(OC(F)(F)F)ccc2-n2nccn2)C(C)(c2nc3c(C)c(Cl)ccc3[nH]2)C1 (stereo partly shown) [Ex. 3.51]
8 | 2 nM | 2 nM | C=C1C[C@@H](c2nc3cc(Cl)c(C(F)(F)F)cc3[nH]2)N(C(=O)c2cc(C)c(C)cc2-n2nccn2)C1 [Ex. 6.181]
9 | 14 nM | 7 nM | C=C1C[C@@H](c2nc3c(OC)ccc(OC)c3[nH]2)N(C(=O)c2nc(C)sc2-c2ccc(C)c(C)c2)C1 [Ex. 6.48]
10 | 52 nM | 44 nM | CO[C@H]1CN(C(=O)c2ccccc2-n2cccn2)C(C)(c2nc3c(C)c(Cl)ccc3[nH]2)C1 (stereo partly shown) [Ex. 3.54]
11 | 660 nM | 76 nM | COc1ccc2nc([C@@H]3CCCN3C(=O)c3nc(C)sc3-c3cccc(Cl)c3Cl)[nH]c2c1 [Ex. 1.19]
12 | 91 nM | 199 nM | Cc1ccc(-c2cccc(C)c2C)c(C(=O)N2CCC[C@@]2(C)c2nc3cc(C(F)(F)F)ccc3[nH]2)c1 [Ex. 5.196]
13 | 3 nM | 543 nM | Cc1nc(C(=O)N2CC[C@H](C)[C@H]2c2nc3c(C)cc(Cl)cc3[nH]2)c(-c2ccc(Cl)cc2)s1 [Ex. 4.94]
14 | 55 nM | 756 nM | Cc1ccc(-n2nccn2)c(C(=O)N2CC[C@H](C)[C@H]2c2nc3c(C(C)C)cccc3[nH]2)c1 [Ex. 4.38]
15 | 8 nM | 21 nM | CCn1c([C@]2(C)CCCN2C(=O)c2cc(C)ccc2-c2ccc(F)cc2)nc2cc(C)c(C)cc21 [Ex. 7.16]
16 | 46 nM | 44 nM | C=C1CN(C(=O)c2ccccc2-c2ccc(F)c(C)c2)C(C)(c2nc3cc(OC)ccc3[nH]2)C1 (racemic) [Ex. 6.151]
17 | 3 nM | 8 nM | Cc1nc(C(=O)N2CCC[C@@]2(C)c2nc3c(C)c(C)c(Br)cc3[nH]2)c(-c2ccc(F)cc2)s1 [Ex. 5.276]
18 | 15 nM | 4030 nM | COc1cccc2[nH]c([C@@H]3[C@@H](C)CCN3C(=O)c3nc(C)sc3-c3cccc(Cl)c3)nc12 [Ex. 4.14]
19 | 7 nM | 82 nM | Cc1ccc(-n2cccn2)c(C(=O)N2CCC[C@@]2(C)c2nc3cc(C(F)(F)F)c(Cl)cc3[nH]2)n1 [Ex. 5.143]
20 | 7 nM | 156 nM | Cc1ccc(-n2nccn2)c(C(=O)N2CC[C@H](C)[C@H]2c2nc3cc(Cl)c(C)cc3[nH]2)c1 [Ex. 4.32]
21 | 373 nM | 4220 nM | COc1cc2nc([C@@H]3[C@@H](C)CCN3C(=O)c3nc(C)sc3-c3ccc(C(F)(F)F)cc3)[nH]c2cc1OC [Ex. 4.50]
22 | 59 nM | 90 nM | C=C1CN(C(=O)c2ccccc2-c2ccc(C)c(C)c2)C(C)(c2nc3cc(OC)ccc3[nH]2)C1 (stereo not shown) [Ex. 6.149]

Row | IC50 (human orexin-1 receptor) | IC50 (human orexin-2 receptor) | Compound
23 | 667 nM | 10 nM | C=C1C[C@@H](c2nc3ccc(OC)cc3[nH]2)N(C(=O)c2cc(OC)ccc2-n2nccn2)C1 [Ex. 6.140]
24 | 5 nM | 6 nM | COc1cccc(-c2sc(C)nc2C(=O)N2CCC[C@@]2(C)c2nc3c(C)c(C)c(Br)cc3[nH]2)c1 [Ex. 5.275]
25 | 8 nM | 16 nM | C=C1CN(C(=O)c2nc(C)sc2-c2cccc(Cl)c2)C(C)(c2nc3cc(OC)ccc3[nH]2)C1 (stereo not shown) [Ex. 6.153]
26 | 223 nM | 17 nM | C=C1C[C@@H](c2nc3cc(OC)ccc3[nH]2)N(C(=O)c2nc(C)sc2-c2ccc(OC)cc2)C1 [Ex. 6.2]
27 | 1 nM | 2 nM | C=C1CC(c2nc3cccc(SC)c3[nH]2)N(C(=O)c2nc(C3CC3)sc2-c2cccc(C)c2)C1 (racemic) [Ex. 6.87]
28 | 3 nM | 7 nM | Cc1nc(C(=O)N2CCC[C@H]2c2nc3c(C)c(Cl)ccc3[nH]2)c(-c2ccccc2)s1 [Ex. 1.145]
29 | 282 nM | 23 nM | CSc1ccc2nc([C@@H]3CCCN3C(=O)c3cc(C#N)ccc3-n3nccn3)[nH]c2c1 [Ex. 1.152]
30 | 349 nM | 7 nM | COc1ccc2[nH]c([C@@H]3CCCN3C(=O)c3cc(C)ccc3-n3nccn3)nc2c1 [Ex. 1.2]
31 | 20 nM | 57 nM | COc1ccc(-n2nccn2)c(C(=O)N2CCC[C@H]2c2nc3cccc(SC)c3[nH]2)c1F [Ex. 1.168]
32 | 20 nM | 4400 nM | Cc1ccc(-c2cccnc2)c(C(=O)N2CC[C@H](C)[C@H]2c2nc3c(C)c(Cl)ccc3[nH]2)c1 [Ex. 4.163]
33 | 316 nM | 114 nM | COc1cc2nc([C@]3(C)CCCN3C(=O)c3nc(C)ccc3-n3nccn3)[nH]c2cc1OC [Ex. 5.85]
34 | 11 nM | 76 nM | Cc1ccc(-n2nccn2)c(C(=O)N2CCC[C@@]2(C)c2nc3c(C(F)(F)F)cccc3[nH]2)c1 [Ex. 5.17]
35 | 19 nM | 83 nM | Cc1c(Cl)ccc2[nH]c([C@]3(C)CCCN3C(=O)c3c(F)cccc3-c3ccccn3)nc12 [Ex. 5.221]
36 | 4950 nM | 23 nM | C=C1C[C@@H](c2nc3ccc(OC)cc3[nH]2)N(C(=O)c2cc(C)ccc2-n2cccn2)C1 [Ex. 6.137]
37 | 39 nM | 9270 nM | Cc1ccc(-c2nc(C(=O)N3CCC[C@@]3(C)c3nc4c(C)c(Cl)ccc4[nH]3)c(-c3ccc(F)cc3)s2)cc1C [Ex. 5.254]
38 | 13 nM | 4 nM | C=C1C[C@@H](c2nc3ccc(Cl)c(C)c3[nH]2)N(C(=O)c2c(-n3nccn3)ccc(C)c2F)C1 [Ex. 6.132]
39 | 20 nM | 2870 nM | COc1cc(F)ccc1-c1nc(C(=O)N2CCC[C@@]2(C)c2nc3c(C)c(Cl)ccc3[nH]2)c(-c2ccc(F)cc2)s1 [Ex. 5.260]
40 | 27 nM | 77 nM | Cc1nc(C(=O)N2CCCC2c2nc3cc(Cl)c(Cl)cc3[nH]2)c(-c2ccccc2)s1 (stereo not shown) [Ex. 1.119]
41 | 5 nM | 12 nM | CO[C@H]1CN(C(=O)c2nc(C)sc2-c2ccccc2)C(C)(c2nc3c(C)c(Cl)ccc3[nH]2)C1 (stereo partly shown) [Ex. 3.24]
42 | 1 nM | 4 nM | Cc1c(Cl)ccc2c1nc([C@]1(C)CCCN1C(=O)c1cc(Cl)ccc1-n1nccn1)n2C [Ex. 7.22]
43 | 410 nM | 19 nM | C=C1C[C@@H](c2nc3cc(OC)ccc3[nH]2)N(C(=O)c2nc(C)sc2-c2ccc(Br)cc2)C1 [Ex. 6.22]

Row | Compound | IC50 (human orexin-1 receptor) | IC50 (human orexin-2 receptor)
44 | Cc1c(Cl)ccc2[nH]c([C@]3(C)CCCN3C(=O)c3cc(OC(F)(F)F)ccc3-n3nccn3)nc12 [Ex. 5.35] | 102 nM | 99 nM

— patent US9732075B2, “Benzimidazole-proline derivatives” (IDORSIA PHARMACEUTICALS LTD, priority 2012, dated 2017)
